Measured values reported in PMC12423301, “Astrocytic monoamine oxidase B (MAOB)–gamma-aminobutyric acid (GABA) axis as a molecular brake on repair following spinal cord injury” (Signal Transduction and Targeted Therapy, 2025).

Assays:
in vivo [1] = conditions: both, cynomolgus monkey, po
APP/PS1 transgenic mice = assay: Tonic GABA current, neuronal firing and DAO compensation in APP/PS1 mice; format: in vivo, mouse
in vivo [2] = assay: in vivo; set-up: species or system SD Rat; conditions: rat
Description: Next, we tested whether pharmacological inhibition of MAOB facilitates recovery after SCI. […] The pharmacokinetic (PK) analysis of KDS2010 was performed in mice, rats, and nonhuman primates. […] We substituted the mouse SCI model with a rat SCI model, which has been reported to be better for pharmacological evaluation and closer to human SCI.[21] We performed Basso, Beattie and Bresnahan (BBB) locomotor test[22] to assess the functional recovery once a week for a total of 11 weeks (Fig. 2a). […] In addition to the BBB locomotor test, we performed the ladder rung test by measuring the percentage of hindlimb steps without slipping as rats walked along a horizontal ladder[23] (Fig. 2d, e). […] We then assessed the tissue recovery using EC staining on cross and longitudinal sections of the spinal cord. […]
In a pharmacokinetic study, plasma PK parameters were measured after a single oral administration of […]
dose group and at 4 to 6 hours after administration in the 30 mg/kg dose group. In the elimination phase, the […]
Systemic exposure (AUClast) to the test substance was 30587 and 80770 ng*hr/mL, respectively.
At this time, AUC0-inf was […]
time, AUC0-inf was 192000 ng eq.h/mL. […]

[3] = system: Alzheimer’s disease mouse model; conditions: cited from earlier work
[4] = Phase 1 clinical trial: treatment-emergent adverse events; format: in vivo, human
Description: Eligibility criteria included healthy adults (aged 19–45) for the SAD and MAD cohorts, and healthy elderly subjects (aged 65–85) for cohort 11. The participants were excluded if they met the following criteria: serum AST or ALT greater than 60 IU/L, total bilirubin greater than 1.8 mg/dL, creatinine phosphokinase (CPK) levels greater than 405 IU/L, creatinine clearance calculated by the Chronic Kidney Disease Epidemiology Collaboration (CKD-EPI) equation less than 60 mL/min/1.73 m². At the time of randomization, all subjects were required to be free from any clinically significant medical conditions. The study was approved by the Seoul National University Hospital institutional review board and conducted in accordance with the Declaration of Helsinki and Good Clinical Practice guidelines.
Subjects who met the eligibility criteria were admitted to the Seoul National University Hospital Clinical Trial Center one day prior to the first dose administration. […] After administration of the last dose, subjects were discharged 72 h later and visited the outpatient clinic for follow-up on three consecutive days. Pharmacokinetics and safety were monitored until the end of the study, lasting up to 18 days after the last dose.
The primary endpoint was the incidence of TEAEs by dose group. […] Those deemed to have a causal relationship with the drug were classified as ADRs. Dose escalation proceeded under blinded conditions, contingent on the absence of dose-limiting toxicity, as reviewed by a safety review committee.

rat SCI model = assay: Ki67 promoter dual-virus labeling of proliferating cells; format: in vivo, Sprague-Dawley (SD) rats; conditions: SCI + KDS 2w, PI 10w
[5] = MAD, healthy elderly, Cohort 11, 120 mg, n = 6
[6] = MAD, young healthy adults, Cohort 7, 60 mg, n = 6
[7] = MAD, young healthy adults, Cohort 8, 120 mg, n = 6
[8] = MAD, young healthy adults, Cohort 9, 240 mg, n = 6
[9] = MAD, young healthy adults, Cohort 10, 480 mg, n = 6
[10] = SAD, young healthy adults, Cohort 1, 30 mg, n = 6
[11] = SAD, young healthy adults, Cohort 2, 60 mg, n = 6
[12] = SAD, young healthy adults, Cohort 3, 120 mg, fasting, n = 6
[13] = SAD, young healthy adults, Cohort 3, 120 mg, fed, n = 5
[14] = SAD, young healthy adults, Cohort 4, 240 mg, n = 6
[15] = SAD, young healthy adults, Cohort 5, 480 mg, n = 6
[16] = SAD, young healthy adults, Cohort 6, 960 mg, n = 6

CS(=O)(=O)O.C[C@H](NCc1ccc(-c2ccc(C(F)(F)F)cc2)cc1)C(N)=O [KDS2010, (S)-2-(((4’-Trifluoromethylbiphenyl-4-yl)methyl)amino)propanamide methane-sulfonate]
NOAEL at 4 weeks (in vivo [1]): 40 mg/kg
tonic GABA current in granule cells of the dentate gyrus (APP/PS1 transgenic mice; 1 mg/kg and 10 mg/kg vs induced control group): dose-dependent reduction
neuronal firing (APP/PS1 transgenic mice; 4-week repeated dosing test, at 2 weeks and 4 weeks): maintained at a level similar to that of the normal group
DAO (diamine oxidase) compensatory mechanism (APP/PS1 transgenic mice; long-term administration): did not induce
AUC(0-inf) (in vivo [2]; SD, iv, 1 mg/kg): 0.164 ± 0.0131 µg·h/mL
Vd/F (in vivo [2]; SD, iv, 1 mg/kg): 18.377 ± 2.743 L/kg
half-life (in vivo [2]; SD, iv, 1 mg/kg): 2.1 ± 0.3 h
AUC(0-inf) (in vivo [2]; SD, po, 9 mg/kg): 9.12 ± 4.13 µg·h/mL
Vd/F (in vivo [2]; SD, po, 9 mg/kg): 19.7 ± 4.34 L/kg
half-life (in vivo [2]; SD, po, 9 mg/kg): 14.6 ± 8.7 h
AUC(0-t) (in vivo [2]; Sprague-Dawley): ~3 µg·h/mL
AUC (in vivo [2]; Sprague-Dawley, po, 9 mg/kg): 3 µg·h/mL
CL/F (in vivo [2]; Sprague-Dawley, po, 9 mg/kg): 1.14 L/h/kg
Cmax (in vivo [2]; Sprague-Dawley, po, 9 mg/kg): 0.508 µg/mL
half-life (in vivo [2]; Sprague-Dawley, po, 9 mg/kg): 10.8 h
learning and memory impairment [3]: reverse learning and memory impairment
effect of a high-fat meal on the frequency of TEAEs ([4]; 120 mg): did not affect
TEAE: Abdominal discomfort [4, 5]: 2 (33.3) number of subjects (%)
TEAE: Constipation [4, 5]: 2 (33.3) number of subjects (%)
TEAE: Diarrhea [4, 5]: 2 (33.3) number of subjects (%)
TEAE: Dizziness [4, 5]: 1 (16.7) number of subjects (%)
TEAE: Hematocrit decreased [4, 5]: 2 (33.3) number of subjects (%)
TEAE: Red blood cell count decreased [4, 5]: 1 (16.7) number of subjects (%)
TEAEs: Any [4, 5]: 5 (83.3) number of subjects (%)
TEAEs: Serious [4, 5]: 0 number of subjects (%)
TEAE: Cough [4, 6]: 1 (16.7) number of subjects (%)
TEAE: Rhinorrhoea [4, 6]: 1 (16.7) number of subjects (%)
TEAEs: Any [4, 6]: 2 (33.3) number of subjects (%)
TEAEs: Serious [4, 6]: 0 number of subjects (%)
TEAEs: Any [4, 7]: 0 number of subjects (%)
TEAEs: Serious [4, 7]: 0 number of subjects (%)
TEAE: Hypersomnia [4, 8]: 1 (16.7) number of subjects (%)
TEAEs: Any [4, 8]: 1 (16.7) number of subjects (%)
TEAEs: Serious [4, 8]: 0 number of subjects (%)
TEAE: Conjunctival hyperemia [4, 9]: 1 (16.7) number of subjects (%)
TEAE: Oropharyngeal pain [4, 9]: 1 (16.7) number of subjects (%)
TEAEs: Any [4, 9]: 2 (33.3) number of subjects (%)
TEAEs: Serious [4, 9]: 0 number of subjects (%)
TEAEs: Any [4, 10]: 2 (33.3) number of subjects (%)
TEAEs: Serious [4, 10]: 0 number of subjects (%)
TEAE: Cough [4, 11]: 1 (16.7) number of subjects (%)
TEAE: Oropharyngeal pain [4, 11]: 1 (16.7) number of subjects (%)
TEAEs: Any [4, 11]: 1 (16.7) number of subjects (%)
TEAEs: Serious [4, 11]: 0 number of subjects (%)
TEAE: Neutrophil count increased [4, 12]: 1 (16.7) number of subjects (%)
TEAEs: Any [4, 12]: 3 (50.0) number of subjects (%)
TEAEs: Serious [4, 12]: 0 number of subjects (%)
TEAE: Neutrophil count increased [4, 13]: 2 (40.0) number of subjects (%)
TEAEs: Any [4, 13]: 3 (60.0) number of subjects (%)
TEAEs: Serious [4, 13]: 0 number of subjects (%)
TEAE: Dry eye [4, 14]: 1 (16.7) number of subjects (%)
TEAE: Neutrophil count increased [4, 14]: 1 (16.7) number of subjects (%)
TEAE: Ocular discomfort [4, 14]: 1 (16.7) number of subjects (%)
TEAE: Swelling of the eyelid [4, 14]: 1 (16.7) number of subjects (%)
TEAE: White blood cell count increased [4, 14]: 1 (16.7) number of subjects (%)
TEAEs: Any [4, 14]: 2 (33.3) number of subjects (%)
TEAEs: Serious [4, 14]: 0 number of subjects (%)
TEAE: Nasal congestion [4, 15]: 1 (16.7) number of subjects (%)
TEAE: Rhinorrhoea [4, 15]: 1 (16.7) number of subjects (%)
TEAEs: Any [4, 15]: 2 (33.3) number of subjects (%)
TEAEs: Serious [4, 15]: 0 number of subjects (%)
TEAE: Conjunctival hyperemia [4, 16]: 1 (16.7) number of subjects (%)
TEAE: Dizziness [4, 16]: 1 (16.7) number of subjects (%)
TEAE: Dry eye [4, 16]: 1 (16.7) number of subjects (%)
TEAE: Nasal congestion [4, 16]: 2 (33.3) number of subjects (%)
TEAE: Rhinorrhoea [4, 16]: 1 (16.7) number of subjects (%)
TEAE: Somnolence [4, 16]: 2 (33.3) number of subjects (%)
TEAEs: Any [4, 16]: 4 (66.7) number of subjects (%)
TEAEs: Serious [4, 16]: 0 number of subjects (%)
number of TEAEs ([4]; all subjects on KDS2010): 56 TEAEs
number of subjects with TEAEs ([4]; all subjects on KDS2010): 25 subjects
proportion of subjects with TEAEs ([4]; all subjects on KDS2010): 37.9%
autonomic nervous system TEAEs ([4]; higher doses (240–960 mg)): TEAEs related to the autonomic nervous system were observed
incidence of TEAEs vs dose ([4]; phase 1): tended to increase with dose
serious adverse events ([4]; phase 1, all cohorts): no serious adverse events
mCh-positive signals (axon fibers from proliferating/proliferated cells) (rat SCI model): traversed the core of the injury site
